Experimental data taken from paper PMC10575543 (PLOS Pathogens, 2023).
“And” between values parts separate entries of the source, which are not always exact repeats. Identical values can stand only once.

Experiments:
ALSV MTase [1] = target: T1, ALSV MTase (Alongshan virus, UniProt A0A344X2I6); assay: biochemical; assay type: binding
ALSV MTase [2] = target: T1, ALSV MTase; assay type: biochemical

Row | Structure (SMILES) | N index (binding stoichiometry) (ALSV MTase [1]) | Kd (ALSV MTase [1]) [µM] | inhibition of ALSV MTase methyltransferase activity (ALSV MTase [2])
1 | Nc1ncnc2c1ncn2[C@@H]1O[C@H](CSCC[C@H](N)C(=O)O)[C@@H](O)[C@H]1O [SAH, S-adenosyl-L-homocysteine] | 0.95 ± 0.05 and 1.05 ± 0.06 |  | 
2 | Nc1ncnc2c1ncn2[C@@H]1O[C@H](C[C@@H](N)CC[C@H](N)C(=O)O)[C@@H](O)[C@H]1O [SIN, sinefungin] |  | 12.6 ± 2.8 | preserved its inhibitory capacity
